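Test compounds were applied to cells in 96-well plates for 48 hours at 5 doses. GI50: concentration for 50% inhibition of growth.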 Active and inactive are the calls of the source. No stated cut-off is given here; in the data, active = GI50 up to about 1.1 µM and inactive = higher.
What was measured:
Assay in all cases: inhibition of tumour cell growth, NCI panel, 48 h
786-0 = test system: 786-0
A549 = test system: A549
ACHN = test system: ACHN
BT-549 = test system: BT-549
CAKI-1 = test system: CAKI-1
CCRF-CEM = test system: CCRF-CEM
COLO 205 = test system: COLO 205
DU-145 = test system: DU-145
EKVX = test system: EKVX
HCT-116 = test system: HCT-116
HCT-15 = test system: HCT-15
HL-60 = test system: HL-60
HOP-62 = test system: HOP-62
HOP-92 = test system: HOP-92
HT-29 = test system: HT-29
Hs-578T = test system: Hs-578T
IGROV-1 = test system: IGROV-1
K562 = test system: K562
KM12 = test system: KM12
LOX IMVI = test system: LOX IMVI
M14 = test system: M14
MCF7 = test system: MCF7
MDA-MB-231 = test system: MDA-MB-231
MDA-MB-435 = test system: MDA-MB-435
MDA-N = test system: MDA-N
MOLT-4 = test system: MOLT-4
Malme-3M = test system: Malme-3M
NCI-H226 = test system: NCI-H226
NCI-H23 = test system: NCI-H23
NCI-H522 = test system: NCI-H522
NCI/ADR-RES = test system: NCI/ADR-RES
OVCAR-3 = test system: OVCAR-3
OVCAR-4 = test system: OVCAR-4
OVCAR-5 = test system: OVCAR-5
OVCAR-8 = test system: OVCAR-8
PC-3 = test system: PC-3
RPMI-8226 = test system: RPMI-8226
RXF 393 = test system: RXF 393
SF-268 = test system: SF-268
SF-295 = test system: SF-295
SF-539 = test system: SF-539
SK-MEL-28 = test system: SK-MEL-28
SK-MEL-2 = test system: SK-MEL-2
SK-MEL-5 = test system: SK-MEL-5
SK-OV-3 = test system: SK-OV-3
SN12C = test system: SN12C
SNB-19 = test system: SNB-19
SNB-75 = test system: SNB-75
SR = test system: SR
SW-620 = test system: SW-620
T47D = test system: T47D
U-251 = test system: U-251
UACC-62 = test system: UACC-62
UO-31 = test system: UO-31
A498 = test system: A498
HCC 2998 = test system: HCC 2998
NCI-H460 = test system: NCI-H460
TK-10 = test system: TK-10
UACC-257 = test system: UACC-257

Structure (SMILES): NC(=O)C(c1ccccc1)N1OC2C(=O)N(c3ccccc3)C(=O)C2C1c1c2ccccc2c(Cl)c2ccccc12 (stereo not drawn)
- GI50 (786-0): > 100 µM (inactive)
- GI50 (A549): > 100 µM (inactive)
- GI50 (ACHN): > 100 µM (inactive)
- GI50 (BT-549): > 100 µM (inactive)
- GI50 (CAKI-1): > 100 µM (inactive)
- GI50 (CCRF-CEM): 61.4 µM (inactive)
- GI50 (COLO 205): > 100 µM (inactive)
- GI50 (DU-145): > 100 µM (inactive)
- GI50 (EKVX): > 100 µM (inactive)
- GI50 (HCT-116): > 100 µM (inactive)
- GI50 (HCT-15): > 100 µM
- GI50 (HL-60): > 100 µM (inactive)
- GI50 (HOP-62): > 100 µM (inactive)
- GI50 (HOP-92): > 100 µM (inactive)
- GI50 (HT-29): > 100 µM (inactive)
- GI50 (Hs-578T): > 100 µM (inactive)
- GI50 (IGROV-1): > 100 µM (inactive)
- GI50 (K562): > 100 µM (inactive)
- GI50 (KM12): > 100 µM (inactive)
- GI50 (LOX IMVI): > 100 µM (inactive)
- GI50 (M14): > 100 µM (inactive)
- GI50 (MCF7): > 100 µM (inactive)
- GI50 (MDA-MB-231): > 100 µM (inactive)
- GI50 (MDA-MB-435): > 100 µM (inactive)
- GI50 (MDA-N): > 100 µM (inactive)
- GI50 (MOLT-4): > 100 µM (inactive)
- GI50 (Malme-3M): > 100 µM (inactive)
- GI50 (NCI-H226): > 100 µM (inactive)
- GI50 (NCI-H23): > 100 µM (inactive)
- GI50 (NCI-H522): > 100 µM (inactive)
- GI50 (NCI/ADR-RES): > 100 µM (inactive)
- GI50 (OVCAR-3): > 100 µM (inactive)
- GI50 (OVCAR-4): > 100 µM (inactive)
- GI50 (OVCAR-5): > 100 µM (inactive)
- GI50 (OVCAR-8): > 100 µM (inactive)
- GI50 (PC-3): > 100 µM (inactive)
- GI50 (RPMI-8226): > 100 µM (inactive)
- GI50 (RXF 393): > 100 µM (inactive)
- GI50 (SF-268): > 100 µM (inactive)
- GI50 (SF-295): > 100 µM (inactive)
- GI50 (SF-539): > 100 µM (inactive)
- GI50 (SK-MEL-28): > 100 µM (inactive)
- GI50 (SK-MEL-2): > 100 µM (inactive)
- GI50 (SK-MEL-5): > 100 µM (inactive)
- GI50 (SK-OV-3): > 100 µM (inactive)
- GI50 (SN12C): > 100 µM (inactive)
- GI50 (SNB-19): > 100 µM (inactive)
- GI50 (SNB-75): > 100 µM (inactive)
- GI50 (SR): > 100 µM (inactive)
- GI50 (SW-620): > 100 µM (inactive)
- GI50 (T47D): > 100 µM (inactive)
- GI50 (U-251): > 100 µM (inactive)
- GI50 (UACC-62): > 100 µM (inactive)
- GI50 (UO-31): > 100 µM (inactive)

Structure (SMILES): COc1ccc(CC(N)c2ccc(OC)cc2)cc1 (stereo not drawn)
- GI50 (786-0): > 100 µM (inactive)
- GI50 (A498): > 100 µM (inactive)
- GI50 (A549): > 100 µM (inactive)
- GI50 (ACHN): > 100 µM (inactive)
- GI50 (BT-549): > 100 µM (inactive)
- GI50 (CAKI-1): > 100 µM (inactive)
- GI50 (CCRF-CEM): 70.5 µM (inactive)
- GI50 (COLO 205): 18.2 µM (inactive)
- GI50 (DU-145): > 100 µM (inactive)
- GI50 (EKVX): > 100 µM (inactive)
- GI50 (HCC 2998): 18.3 µM (inactive)
- GI50 (HCT-116): 92.9 µM (inactive)
- GI50 (HCT-15): > 100 µM
- GI50 (HL-60): 49.7 µM (inactive)
- GI50 (HOP-62): > 100 µM (inactive)
- GI50 (HOP-92): 29.4 µM (inactive)
- GI50 (HT-29): 45.4 µM (inactive)
- GI50 (Hs-578T): 43.9 µM (inactive)
- GI50 (IGROV-1): 66.7 µM (inactive)
- GI50 (K562): 33.1 µM (inactive)
- GI50 (KM12): 50 µM (inactive)
- GI50 (LOX IMVI): 57.5 µM (inactive)
- GI50 (M14): 48 µM (inactive)
- GI50 (MCF7): 44.5 µM (inactive)
- GI50 (MDA-MB-231): 84.9 µM (inactive)
- GI50 (MDA-MB-435): 37.2 µM (inactive)
- GI50 (MDA-N): 36.8 µM (inactive)
- GI50 (MOLT-4): 57.8 µM (inactive)
- GI50 (Malme-3M): 37.4 µM (inactive)
- GI50 (NCI-H226): 76.2 µM (inactive)
- GI50 (NCI-H23): > 100 µM (inactive)
- GI50 (NCI-H460): 39.9 µM (inactive)
- GI50 (NCI-H522): > 100 µM (inactive)
- GI50 (NCI/ADR-RES): > 100 µM (inactive)
- GI50 (OVCAR-3): > 100 µM (inactive)
- GI50 (OVCAR-4): > 100 µM (inactive)
- GI50 (OVCAR-5): > 100 µM (inactive)
- GI50 (OVCAR-8): > 100 µM (inactive)
- GI50 (PC-3): 42.8 µM (inactive)
- GI50 (RPMI-8226): 28.1 µM (inactive)
- GI50 (RXF 393): 72.1 µM (inactive)
- GI50 (SF-268): > 100 µM (inactive)
- GI50 (SF-295): > 100 µM (inactive)
- GI50 (SK-MEL-28): 38.4 µM (inactive)
- GI50 (SK-MEL-5): 43.4 µM (inactive)
- GI50 (SK-OV-3): 71.4 µM (inactive)
- GI50 (SN12C): > 100 µM (inactive)
- GI50 (SNB-19): > 100 µM (inactive)
- GI50 (SNB-75): 77.1 µM (inactive)
- GI50 (SW-620): > 100 µM (inactive)
- GI50 (T47D): 46.3 µM (inactive)
- GI50 (TK-10): > 100 µM (inactive)
- GI50 (U-251): 95.3 µM (inactive)
- GI50 (UACC-257): 42 µM (inactive)
- GI50 (UACC-62): 71.3 µM (inactive)
- GI50 (UO-31): 90.6 µM (inactive)

Structure (SMILES): CC(C)(C)OC(=O)NC(Cc1ccccc1)OCc1ccccc1 (stereo not drawn)
- GI50 (786-0): 17.2 µM (inactive)
- GI50 (A549): 17.6 µM (inactive)
- GI50 (ACHN): 19.4 µM (inactive)
- GI50 (BT-549): 23.3 µM (inactive)
- GI50 (CAKI-1): 19.6 µM (inactive)
- GI50 (COLO 205): 35 µM (inactive)
- GI50 (DU-145): 20.1 µM (inactive)
- GI50 (EKVX): 17.4 µM (inactive)
- GI50 (HCC 2998): 23.9 µM (inactive)
- GI50 (HCT-116): 17.9 µM (inactive)
- GI50 (HCT-15): 19.4 µM
- GI50 (HOP-62): 18.9 µM (inactive)
- GI50 (HT-29): 21.1 µM (inactive)
- GI50 (Hs-578T): 23.3 µM (inactive)
- GI50 (IGROV-1): > 10 µM (inactive)
- GI50 (K562): 20.6 µM (inactive)
- GI50 (KM12): 19.5 µM (inactive)
- GI50 (M14): 17.9 µM (inactive)
- GI50 (MCF7): 19.7 µM (inactive)
- GI50 (MDA-MB-231): 15.3 µM (inactive)
- GI50 (MDA-MB-435): 19.4 µM (inactive)
- GI50 (MDA-N): 19.3 µM (inactive)
- GI50 (MOLT-4): 17.4 µM (inactive)
- GI50 (Malme-3M): 23.6 µM (inactive)
- GI50 (NCI-H226): 18.7 µM (inactive)
- GI50 (NCI-H23): 16 µM (inactive)
- GI50 (NCI-H460): 21.3 µM (inactive)
- GI50 (NCI-H522): 11.4 µM (inactive)
- GI50 (NCI/ADR-RES): 26.7 µM (inactive)
- GI50 (OVCAR-3): 23.2 µM (inactive)
- GI50 (OVCAR-5): 24 µM (inactive)
- GI50 (OVCAR-8): 20.1 µM (inactive)
- GI50 (PC-3): 13.5 µM (inactive)
- GI50 (RPMI-8226): 26 µM (inactive)
- GI50 (RXF 393): 20.8 µM (inactive)
- GI50 (SF-268): 18.4 µM (inactive)
- GI50 (SF-295): 16.6 µM (inactive)
- GI50 (SF-539): 21.4 µM (inactive)
- GI50 (SK-MEL-28): 17.9 µM (inactive)
- GI50 (SK-MEL-2): 29.4 µM (inactive)
- GI50 (SK-MEL-5): 15.5 µM (inactive)
- GI50 (SK-OV-3): 17.6 µM (inactive)
- GI50 (SN12C): 26.1 µM (inactive)
- GI50 (SNB-19): 19.5 µM (inactive)
- GI50 (SNB-75): 12.2 µM (inactive)
- GI50 (SR): 30.7 µM (inactive)
- GI50 (SW-620): 17.2 µM (inactive)
- GI50 (T47D): 14.6 µM (inactive)
- GI50 (TK-10): 19 µM (inactive)
- GI50 (U-251): > 10 µM (inactive)
- GI50 (UACC-257): > 10 µM (inactive)
- GI50 (UACC-62): 15 µM (inactive)
- GI50 (UO-31): 17.1 µM (inactive)
